≈ marks a conversion by molar mass, not a printed value. Structures can show the parent of a compound that is named as a salt. Where two headings read alike, the source gives them in different places.
Assay: Solubility of the active ingredients in water
Assay type: physicochemical
Details: thermodynamic from solid
Protocol: The invention is suitable for active ingredients which have a solubility in water of at least 10 g/l, preferably at least 30 g/l, particularly preferably of at least 50 g/l, especially preferably of at least 100 g/l, 200 g/l, 300 g/l or 400 g/l at 20° C. (solubility in water based on standard methods such as, for example, Pharmeuropa—Technical Guide for the Elaboration of Monographs, 3rd Edition (1999), Chapter IV, Appendix IV (incorporated by reference) with vigorous shaking for 1 min, leaving to stand for 15 min at 20° C. in purified water). These ranges include all intermediate values and subranges.

| Structure (SMILES) | solubility at 15 min (at 20° C., Pharmeuropa Technical Guide method, shaking for 15 min, read-out: solubility in water) [mg/mL] | solubility at 15 min (20 °C) [mg/mL] |
| --- | --- | --- |
| Cn1c(=O)c2[nH]cnc2n(C)c1=O [Theophylline] | 8.4 (≈ 46.6 mM) |  |
| CNC[C@H](O)c1cccc(O)c1 [Phenylephrine hydrochloride] |  | 500 |
| CC(C)(C)NCC(O)c1cc(O)cc(O)c1 (stereo not drawn) [Terbutaline sulphate] |  | 500 |
